{"source": "patent US10189854B2", "about": "“Substituted pyrimidine compounds” (Grünenthal GmbH, priority 2014, dated 2019)", "target": "human PDE4B1 (Homo sapiens (Human), UniProt Q07343)", "sequence (Q07343 whole entry)": "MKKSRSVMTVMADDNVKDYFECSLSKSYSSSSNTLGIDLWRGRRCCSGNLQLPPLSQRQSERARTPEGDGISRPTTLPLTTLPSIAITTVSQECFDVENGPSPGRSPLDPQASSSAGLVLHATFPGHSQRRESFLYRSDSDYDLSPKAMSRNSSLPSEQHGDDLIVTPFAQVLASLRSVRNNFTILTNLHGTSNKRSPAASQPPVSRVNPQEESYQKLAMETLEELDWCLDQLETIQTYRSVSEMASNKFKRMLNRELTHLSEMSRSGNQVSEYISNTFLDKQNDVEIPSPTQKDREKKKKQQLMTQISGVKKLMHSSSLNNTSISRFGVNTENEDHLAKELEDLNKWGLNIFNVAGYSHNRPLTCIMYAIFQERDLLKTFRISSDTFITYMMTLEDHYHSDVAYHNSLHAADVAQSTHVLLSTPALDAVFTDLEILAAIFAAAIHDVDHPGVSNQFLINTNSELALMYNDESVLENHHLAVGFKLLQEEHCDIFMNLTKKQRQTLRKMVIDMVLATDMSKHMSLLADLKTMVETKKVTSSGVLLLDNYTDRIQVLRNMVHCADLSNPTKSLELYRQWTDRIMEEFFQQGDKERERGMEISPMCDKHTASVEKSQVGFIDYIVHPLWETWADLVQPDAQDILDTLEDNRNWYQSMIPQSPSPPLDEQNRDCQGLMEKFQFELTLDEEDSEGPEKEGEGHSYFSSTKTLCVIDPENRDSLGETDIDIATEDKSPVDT", "experiment": "TR-FRET assay using the LANCE Ultra cAMP kit to determine the activity of hPDE4B1", "assay_type": "biochemical", "conditions": "IC50 inhibition of PDE4B, mean", "source_text": "TR-FRET Assay Using the LANCE® Ultra cAMP Kit to Determine the Activity of hPDE4B1\nThe effects of the compounds on the activity of the human PDE4B1 was quantified by measuring the production of 5′AMP from cAMP using a human recombinant enzyme expressed in Sf9 cells and the LANCE® Ultra cAMP kit, a TR-FRET detection method from PerkinElmer. The human PDE4B1 enzyme was purchased from SignalChem Lifesciences (Catalog# P92-31BG, Lot# H296-2).\nThe test compound, reference compound or water (control) was mixed with the enzyme (0.96 U) in a reaction buffer containing 50 mM Tris-HCl, 50 mM MgCl2 and 5 mM DTT (pH 8.5). Thereafter, the reaction was initiated by addition of 500 nM cAMP (substrate) and the mixture was incubated for 30 minutes at room temperature. For control basal measurements, the enzyme was omitted from the reaction mixture. After 30 minutes, the reaction was stopped and diluted by a factor of 100 with the reaction buffer supplemented with 500 μM IBMX. The fluorescence donor (europium chelate-labeled cAMP) and the fluorescence acceptor (anti-cAMP antibody labeled with the ULight™ dye) were then added together with 500 μM IBMX to a 10 μl aliquot. After 60 minutes, the fluorescence transfer corresponding to the amount of residual cAMP was measured at λex=337 nm, λem=620 nm and λem=665 nm using a microplate reader (PHERAstar, BMG). The enzyme activity was determined by dividing the signal measured at 665 nm by that measured at 620 nm (ratio) multiplied by 10000. The results were expressed as percent inhibition of the control enzyme activity. IC50 values (IC50=concentration causing a half-maximal inhibition of control specific activity) were derived from dose response measurements with ten different concentrations (n=3; N=1-3).\nSeveral compounds according to the invention are tested with above mentioned assay.", "data": [{"smiles": "COc1ccnc(-c2cnc(N3CC4(CC4)c4ccc(C(=O)N5CC[C@@H](N)C5)cc43)nc2)c1", "note": "[Compound 330, [(3R)-3-Amino-pyrrolidin-1-yl]-[1-[5-(4-methoxy-pyridin-2-yl)-pyrimidin-2-yl]-spiro[1,2-dihydro-indole-3,1′-cyclopropane]-6-yl]-methanone]", "values": [{"measurement": "IC50", "value": "< 0.1", "unit": "µM"}]}, {"smiles": "CC(=O)Nc1ccnc(-c2cnc(N3CC4(CC4)c4ccc(C(=O)N5C[C@@H]6C[C@H]5CN6)cc43)nc2)c1", "note": "[Compound 338, N-[2-[2-[6-[(1S,4S)-2,5-Diazabicyclo[2.2.1]heptane-2-carbonyl]-spiro[1,2-dihydro-indole-3,1′-cyclopropane]-1-yl]-pyrimidin-5-yl]-pyridin-4-yl]-acetamide]", "values": [{"measurement": "IC50", "value": "< 0.1", "unit": "µM"}]}, {"smiles": "CN(CCO)C(=O)c1ccc2c(c1)N(c1ncc(-c3ccc4c(c3)OCO4)cn1)CC21CC1", "note": "[Compound 219, 1-[5-(1,3-Benzodioxol-5-yl)-pyrimidin-2-yl]-N-(2-hydroxy-ethyl)-N-methyl-spiro[1,2-dihydro-indole-3,1′-cyclopropane]-6-carboxylic acid amide]", "values": [{"measurement": "IC50", "value": "< 0.1", "unit": "µM"}]}, {"smiles": "Cc1nc(-c2cnc(N3CC4(CC4)c4ccc(C(=O)N(C)CCO)cc43)nc2)cs1", "note": "[Compound 324, N-(2-Hydroxy-ethyl)-N-methyl-1-[5-(2-methyl-thiazol-4-yl)-pyrimidin-2-yl]-spiro[1,2-dihydro-indole-3,1′-cyclopropane]-6-carboxylic acid amide]", "values": [{"measurement": "IC50", "value": "< 0.1", "unit": "µM"}]}, {"smiles": "CN(CCO)C(=O)c1ccc2c(c1)N(c1ncc(-c3cc(S(C)(=O)=O)ccc3F)cn1)CC21CC1", "note": "[Compound 296, 1-[5-(2-Fluoro-5-methylsulfonyl-phenyl)-pyrimidin-2-yl]-N-(2-hydroxy-ethyl)-N-methyl-spiro[1,2-dihydro-indole-3,1′-cyclopropane]-6-carboxylic acid amide]", "values": [{"measurement": "IC50", "value": "< 0.1", "unit": "µM"}]}, {"smiles": "CCc1nc(-c2cnc(N3CC4(CC4)c4ccc(C(=O)N(C)CCO)cc43)nc2)cs1", "note": "[Compound 325, 1-[5-(2-Ethyl-thiazol-4-yl)-pyrimidin-2-yl]-N-(2-hydroxy-ethyl)-N-methyl-spiro[1,2-dihydro-indole-3,1′-cyclopropane]-6-carboxylic acid amide]", "values": [{"measurement": "IC50", "value": "< 0.1", "unit": "µM"}]}, {"smiles": "CN(CCO)C(=O)c1ccc2c(c1)N(c1ncc(-c3cn(C)cn3)cn1)CC21CC1", "note": "[Compound 323, N-(2-Hydroxy-ethyl)-N-methyl-1-[5-(1-methyl-1H-imidazol-4-yl)-pyrimidin-2-yl]-spiro[1,2-dihydro-indole-3,1′-cyclopropane]-6-carboxylic acid amide]", "values": [{"measurement": "IC50", "value": "< 0.1", "unit": "µM"}]}, {"smiles": "O=C(c1ccc2c(c1)N(c1ncc(-c3ccccc3F)cn1)CC21CC1)N1CCO[C@@H](CO)C1", "note": "[Compound 362, [1-[5-(2-Fluorophenyl)-pyrimidin-2-yl]-spiro[1,2-dihydro-indole-3,1′-cyclopropane]-6-yl]-[(2R)-2-(hydroxymethyl)-morpholin-4-yl]-methanone]", "values": [{"measurement": "IC50", "value": "< 0.1", "unit": "µM"}]}, {"smiles": "CN(CCO)C(=O)c1ccc2c(c1)N(c1ncc(-c3cc(S(C)(=O)=O)ccn3)cn1)CC21CC1", "note": "[Compound 289, N-(2-Hydroxy-ethyl)-N-methyl-1-[5-(4-methylsulfonyl-pyridin-2-yl)-pyrimidin-2-yl]-spiro[1,2-dihydro-indole-3,1′-cyclopropane]-6-carboxylic acid amide]", "values": [{"measurement": "IC50", "value": "< 0.1", "unit": "µM"}]}, {"smiles": "CN(CCO)C(=O)c1ccc2c(c1)N(c1ncc(-c3cc(N)ccc3F)cn1)CC21CC1", "note": "[Compound 228, 1-[5-(5-Amino-2-fluoro-phenyl)-pyrimidin-2-yl]-N-(2-hydroxy-ethyl)-N-methyl-spiro[1,2-dihydro-indole-3,1′-cyclopropane]-6-carboxylic acid amide]", "values": [{"measurement": "IC50", "value": "< 0.1", "unit": "µM"}]}, {"smiles": "CN(C)c1ccnc(-c2cnc(N3CC4(CC4)c4ccc(C(=O)N5CCCC5)cc43)nc2)c1", "note": "[Compound 276, [1-[5-(4-Dimethylamino-pyridin-2-yl)-pyrimidin-2-yl]-spiro[1,2-dihydro-indole-3,1′-cyclopropane]-6-yl]-pyrrolidin-1-yl-methanone]", "values": [{"measurement": "IC50", "value": "< 0.1", "unit": "µM"}]}, {"smiles": "Cc1cccc(-c2cnc(N3CC4(CC4)c4ccc(C(=O)N5C[C@@H]6C[C@H]5CN6)cc43)nc2)n1", "note": "[Compound 305, [(1S,4S)-2,5-Diazabicyclo[2.2.1]heptan-2-yl]-[1-[5-(6-methyl-pyridin-2-yl)-pyrimidin-2-yl]-spiro[1,2-dihydro-indole-3,1′-cyclopropane]-6-yl]-methanone]", "values": [{"measurement": "IC50", "value": "< 0.1", "unit": "µM"}]}, {"smiles": "O=C(c1ccc2c(c1)N(c1ncc(-c3cc(C4(O)CC4)ccn3)cn1)CC21CC1)N1CCOCC1", "note": "[Compound 351, [1-[5-[4-(1-Hydroxy-cyclopropyl)-pyridin-2-yl]-pyrimidin-2-yl]-spiro[1,2-dihydro-indole-3,1′-cyclopropane]-6-yl]-morpholin-4-yl-methanone]", "values": [{"measurement": "IC50", "value": "< 0.1", "unit": "µM"}]}, {"smiles": "O=C(c1ccc2c(c1)N(c1ncc(-c3ccccn3)cn1)CC21CC1)N1C[C@@H]2C[C@H]1CN2", "note": "[Compound 304, [(1S,4S)-2,5-Diazabicyclo[2.2.1]heptan-2-yl]-[1-(5-pyridin-2-yl-pyrimidin-2-yl)-spiro[1,2-dihydro-indole-3,1′-cyclopropane]-6-yl]-methanone]", "values": [{"measurement": "IC50", "value": "< 0.1", "unit": "µM"}]}, {"smiles": "COc1ccc(F)c(-c2cnc(N3CC4(CC4)c4ccc(C(=O)N(C)CCO)cc43)nc2)c1", "note": "[Compound 253, 1-[5-(2-Fluoro-5-methoxy-phenyl)-pyrimidin-2-yl]-N-(2-hydroxy-ethyl)-N-methyl-spiro[1,2-dihydro-indole-3,1′-cyclopropane]-6-carboxylic acid amide]", "values": [{"measurement": "IC50", "value": "< 0.1", "unit": "µM"}]}, {"smiles": "Cc1cccc(-c2cnc(N3CC4(CC4)c4ccc(C(=O)N(C)C)cc43)nc2)n1", "note": "[Compound 303, N,N-Dimethyl-1-[5-(6-methyl-pyridin-2-yl)-pyrimidin-2-yl]-spiro[1,2-dihydro-indole-3,1′-cyclopropane]-6-carboxylic acid amide]", "values": [{"measurement": "IC50", "value": "< 0.1", "unit": "µM"}]}, {"smiles": "O=C(c1ccc2c(c1)N(c1ncc(-c3ccccc3F)cn1)CC21CC1)N(CCO)C1CC1", "note": "[Compound 278, N-Cyclopropyl-1-[5-(2-fluorophenyl)-pyrimidin-2-yl]-N-(2-hydroxy-ethyl]-spiro[1,2-dihydro-indole-3,1′-cyclopropane]-6-carboxylic acid amide]", "values": [{"measurement": "IC50", "value": "< 0.1", "unit": "µM"}]}, {"smiles": "O=C(c1ccc2c(c1)N(c1ncc(-c3cc(NCC4CC4)ccn3)cn1)CC21CC1)N1CCOCC1", "note": "[Compound 295, [1-[5-[4-(Cyclopropyl-methylamino)-pyridin-2-yl]-pyrimidin-2-yl]-spiro[1,2-dihydro-indole-3,1′-cyclopropane]-6-yl]-morpholin-4-yl-methanone]", "values": [{"measurement": "IC50", "value": "< 0.1", "unit": "µM"}]}, {"smiles": "O=C(c1ccc2c(c1)N(c1ncc(-c3cc(C4CC4)ccn3)cn1)CC21CC1)N1CCC[C@H](CO)C1", "note": "[Compound 332, [1-[5-(4-Cyclopropyl-pyridin-2-yl)-pyrimidin-2-yl]-spiro[1,2-dihydro-indole-3,1′-cyclopropane]-6-yl]-[(3S)-3-(hydroxymethyl)-piperidin-1-yl]-methanone]", "values": [{"measurement": "IC50", "value": "< 0.1", "unit": "µM"}]}, {"smiles": "COc1cc(C)nc(-c2cnc(N3CC4(CC4)c4ccc(C(=O)N(C)CCO)cc43)nc2)c1", "note": "[Compound 282, N-(2-Hydroxy-ethyl)-1-[5-(4-methoxy--methyl-pyridin-2-yl)-pyrimidin-2-yl]-N-methyl-spiro[1,2-dihydro-indole-3,1′-cyclopropane]-6-carboxylic acid amide]", "values": [{"measurement": "IC50", "value": "< 0.1", "unit": "µM"}]}, {"smiles": "Nc1ccnc(-c2cnc(N3CC4(CC4)c4ccc(C(=O)N5CCNC(=O)C5)cc43)nc2)c1", "note": "[Compound 258, 4-[1-[5-(4-Amino-pyridin-2-yl)-pyrimidin-2-yl]-spiro[1,2-dihydro-indole-3,1′-cyclopropane]-6-carbonyl]-piperazin-2-one]", "values": [{"measurement": "IC50", "value": "< 0.1", "unit": "µM"}]}, {"smiles": "CN(CCO)C(=O)c1ccc2c(c1)N(c1ncc(-c3cccc(Cl)c3)cn1)CC21CC1", "note": "[Compound 273, 1-[5-(3-Chlorophenyl)-pyrimidin-2-yl]-N-(2-hydroxy-ethyl)-N-methyl-spiro[1,2-dihydro-indole-3,1′-cyclopropane]-6-carboxylic acid amide]", "values": [{"measurement": "IC50", "value": "< 0.1", "unit": "µM"}]}, {"smiles": "O=C(c1ccc2c(c1)N(c1ncc(-c3ccccc3F)cn1)CC21CC1)N1CCC[C@@H](CO)C1", "note": "[Compound 313, [1-[5-(2-Fluorophenyl)-pyrimidin-2-yl]-spiro[1,2-dihydro-indole-3,1′-cyclopropane]-6-yl]-[(3R)-3-(hydroxymethyl)-piperidin-1-l]-methanone]", "values": [{"measurement": "IC50", "value": "< 0.1", "unit": "µM"}]}, {"smiles": "CN(CCO)C(=O)c1ccc2c(c1)N(c1ncc(-c3cccc(F)c3F)cn1)CC21CC1", "note": "[Compound 225, 1-[5-(2,3-Difluoro-phenyl)-pyrimidin-2-yl]-N-(2-hydroxy-ethyl)-N-methyl-spiro[1,2-dihydro-indole-3,1′-cyclopropane]-6-carboxylic acid amide]", "values": [{"measurement": "IC50", "value": "< 0.1", "unit": "µM"}]}, {"smiles": "CC(O)c1ccnc(-c2cnc(N3CC4(CC4)c4ccc(C(=O)N5CCOCC5)cc43)nc2)c1", "note": "(stereo not shown) [Compound 293, [1-[5-[4-(1-Hydroxy-ethyl)-pyridin-2-yl]-pyrimidin-2-yl]-spiro[1,2-dihydro-indole-3,1′-cyclopropane]-6-yl]-morpholin-4-yl-methanone]", "values": [{"measurement": "IC50", "value": "< 0.1", "unit": "µM"}]}]}
